Experiment: RP, Waters ACQUITY UPLC HSS T3, 0.1 mL/min; A: water + 0.01% formic acid; B: acetonitrile + 0.01% formic acid; gradient (min/%B) 0/10 38/45 45/45 55/0 60/0
Settings: stereoisomer not certain
For `CON(C)C(=O)Nc1ccc(Cl)c(Cl)c1` [Linuron], the LC retention time was 31.7 min. With `CNC(=O)c1cc(Cl)cc(C)c1NC(=O)c1cc(Br)nn1-c1ncccc1Cl` [Chlorantraniliprole] the LC retention time was 30.9 min. Work on `CCNc1nc(Cl)nc(NC(C)(C)C)n1` [Terbuthylazine] yielded an LC retention time of 30.6 min. In the case of `Cc1cc(C)nc(Nc2ccccc2)n1` [Pyrimethanil], the LC retention time is reported as 22.2 min. In the case of `CC12CCC3c4ccc(O)cc4CCC3C1CC(O)C2O` (stereo unspecified) [Estriol], the LC retention time is reported as 11.7 min. `Nc1ccc(O)cc1` [4-Aminophenol] showed an LC retention time of 1.3 min. `CCC(C)n1c(=O)[nH]c(C)c(Br)c1=O` (stereo unspecified) [Bromacil] showed an LC retention time of 14.3 min. `CN1CCC23c4c5ccc(O)c4OC2C(O)C=CC3C1C5` (stereo unspecified) [Morphine] showed an LC retention time of 4.26 min. Work on `COC=C(C(=O)OC)c1ccccc1Oc1cc(Oc2ccccc2C#N)ncn1` [Azoxystrobin] yielded an LC retention time of 38 min. In the case of `CC(C)c1ccc(NC(=O)N(C)C)cc1` [Isoproturon], the LC retention time is reported as 23.4 min. Work on `COC(=O)Nc1nc2ccccc2[nH]1` [Carbendazim] yielded an LC retention time of 5.69 min. In the case of `CCCCCC=CCC=CCC=CCC=CCCCC(=O)O` [Arachidonic Acid], the LC retention time is reported as 47 min. For `CC(C)(C)C(O)C(Cc1ccc(Cl)cc1)n1cncn1` (stereo unspecified) [Paclobutrazole], the LC retention time was 31.5 min. For `O=C(Nc1ccccc1)N(Cc1ccc(Cl)cc1)C1CCCC1` [Pencycuron], the LC retention time was 43.7 min. Compound `COc1cc(OC)nc(NC(=O)NS(=O)(=O)c2cc(NC=O)ccc2C(=O)N(C)C)n1` [Foramsulfuron] has an LC retention time of 17.9 min. With `CS(=O)(=O)c1ccc(C(=O)C2C(=O)CCCC2=O)c(Cl)c1` [Sulcotrione] the LC retention time was 18.6 min. `COC(=O)c1ccc(O)cc1` [Methylparaben] showed an LC retention time of 10 min. Work on `CON(C)C(=O)Nc1ccc(Br)cc1` [Metobromuron] yielded an LC retention time of 24.5 min. In the case of `CN1CCCC1c1cccnc1` (stereo unspecified) [Nicotine], the LC retention time is reported as 3.37 min. Compound `CSc1nnc(C(C)(C)C)c(=O)n1N` [Metribuzine] has an LC retention time of 15.6 min. `CC1CCC2C(C)C3C(CC4C5CC=C6CC(O)CCC6(C)C5CCC43C)N2C1` (stereo unspecified) [Solanidine] showed an LC retention time of 24.5 min. `O=C(Nc1ccccc1-c1ccc(Cl)cc1)c1cccnc1Cl` [Boscalid] gave an LC retention time of 38 min. In the case of `N#CN=C1SCCN1Cc1ccc(Cl)nc1` [Thiacloprid], the LC retention time is reported as 12.2 min. Compound `COC(=O)c1ccc(I)cc1S(=O)(=O)NC(=O)Nc1nc(C)nc(OC)n1` [Iodosulfuron-methyl] has an LC retention time of 30.4 min. For `CCCCCC(O)C=CC1C(=O)CC(O)C1CC=CCCCC(=O)O` (stereo unspecified) [Prostaglandin D2], the LC retention time was 27.6 min. With `CC(C)(C)C(=O)OCOC(=O)C1N2C(=O)C(N=CN3CCCCCC3)C2SC1(C)C` (stereo unspecified) [Pivmecillinam] the LC retention time was 26.4 min. `Nc1ccccc1` [Aniline] showed an LC retention time of 3.1 min. `COC(=O)c1ccc(CNS(C)(=O)=O)cc1S(=O)(=O)NC(=O)Nc1nc(OC)cc(OC)n1` [Mesosulfuron-methyl] showed an LC retention time of 26.6 min. In the case of `O=C1Nc2ccc(Cl)cc2C(c2ccccc2)=NC1O` (stereo unspecified) [Oxazepam], the LC retention time is reported as 20.6 min. Compound `CC(=O)C1(O)CCC2C3CCC4=CC(=O)CCC4(C)C3CCC21C` (stereo unspecified) [Progesterone-17-hydroxy] has an LC retention time of 33.9 min. With `COC(=O)c1ccc(C)cc1C1=NC(C)(C(C)C)C(=O)N1` (stereo unspecified) [Imazamethabenz-methyl] the LC retention time was 14.2 min. Compound `CCCCCC=CCC=CC=CC=CC(SCC(N)C(=O)NCC(=O)O)C(O)CCCC(=O)O` (stereo unspecified) [Leukotriene D4] has an LC retention time of 33 min. In the case of `CC12CCC3c4cc(O)c(O)cc4CCC3C1CCC2O` (stereo unspecified) [Estradiol-2-hydroxy], the LC retention time is reported as 21.5 min. For `CC12CCC3c4ccc(O)cc4CCC3C1CCC2=O` (stereo unspecified) [Estrone], the LC retention time was 31.6 min. In the case of `CC12CCC3C(CCC4=CC(=O)CCC43C)C1CCC2=O` (stereo unspecified) [Androstenedione], the LC retention time is reported as 31.5 min. Compound `CC(C)N(C(=O)CCl)c1ccccc1` [Propachlore] has an LC retention time of 25.8 min. `CC(C)N(Cc1ccccc1)C(=O)C(C)(C)C` [Tebutame] showed an LC retention time of 39 min. In the case of `COc1cc(OC)nc(NC(=O)NS(=O)(=O)c2ncccc2C(=O)N(C)C)n1` [Nicosulfuron], the LC retention time is reported as 15.2 min. In the case of `O=C(O)COc1nc(Cl)c(Cl)cc1Cl` [Triclopyr], the LC retention time is reported as 25 min. `CCOP(=S)(OCC)Oc1cc(C)nc(C(C)C)n1` [Diazinon] gave an LC retention time of 43.4 min. `CC(=O)Nc1ccc(O)cc1` [Paracetamol] showed an LC retention time of 4.98 min. `CC12CCC3c4cc(O)c(O)cc4CCC3C1CCC2=O` (stereo unspecified) [Estrone-2-hydroxy] showed an LC retention time of 24.6 min. `CCOP(=O)(SC(C)CC)N1CCSC1=O` (stereo unspecified) [Fosthiazate] showed an LC retention time of 22.2 min. With `CC1(C)CCC(=Cc2ccc(Cl)cc2)C1(O)Cn1cncn1` (stereo unspecified) [Triticonazole] the LC retention time was 33.8 min. In the case of `N[C@@H](Cc1cc(I)c(Oc2cc(I)c(O)c(I)c2)c(I)c1)C(=O)O` [L-thyroxine], the LC retention time is reported as 25.6 min. For `O=C(O)Cc1c[nH]c2ccc(O)cc12` [Hydroxyindoleacetic acid], the LC retention time was 5.71 min. With `NC(=O)N1c2ccccc2C=Cc2ccccc21` [Carbamazepine] the LC retention time was 18 min. With `CNC(=O)Oc1cccc2c1OC(C)(C)C2` [Carbofuran] the LC retention time was 18.6 min. Compound `CCNc1nc(NC(C)(C)C)nc(SC)n1` [Terbutryne] has an LC retention time of 28 min. `COP(=S)(OC)Oc1nc(Cl)c(Cl)cc1Cl` [Chlorpyrifos-methyl] gave an LC retention time of 43.9 min. With `CC(Oc1ccc(Cl)cc1Cl)C(=O)O` (stereo unspecified) [Dichlorprop] the LC retention time was 10 min. `CCC(Oc1ccc(F)c(C(F)(F)F)c1)C(=O)NCc1ccccc1` (stereo unspecified) [Beflubutamid] gave an LC retention time of 42.7 min. With `COCC(=O)N(c1c(C)cccc1C)C(C)C(=O)OC` (stereo unspecified) [Metalaxyl] the LC retention time was 24.3 min. `CC(Cc1ccc(C(C)(C)C)cc1)CN1CC(C)OC(C)C1` (stereo unspecified) [Fenpropimorph] showed an LC retention time of 30.1 min. Work on `Nc1nc2ccccc2[nH]1` [Aminobenzimidazole] yielded an LC retention time of 4.74 min. Compound `[O-][n+]1nc(-n2ccnc2)nc2ccc(Cl)cc21` [Triazoxide] has an LC retention time of 16 min. In the case of `O=C(O)Cc1ccccc1Nc1c(Cl)cccc1Cl` [Diclofenac], the LC retention time is reported as 39.6 min. With `Cc1cccc(C)c1N(Cn1cccn1)C(=O)CCl` [Metazachlore] the LC retention time was 26.6 min. For `CC(=O)C1CCC2C3CC=C4CC(O)CCC4(C)C3CCC12C` (stereo unspecified) [Pregnenolone], the LC retention time was 41.8 min. `CC(C)(C)C(O)C(Oc1ccc(Cl)cc1)n1cncn1` (stereo unspecified) [Triadimenol] showed an LC retention time of 31.6 min. For `CC(C)C1(C)N=C(c2nc3ccccc3cc2C(=O)O)NC1=O` (stereo unspecified) [Imazaquin], the LC retention time was 16.3 min. `COc1cc(OC)n2nc(S(=O)(=O)Nc3c(Cl)ccc(C)c3Cl)nc2n1` [Metosulam] showed an LC retention time of 24.8 min. Compound `CCCC1COC(Cn2cncn2)(c2ccc(Cl)cc2Cl)O1` (stereo unspecified) [Propiconazole] has an LC retention time of 41.7 min. `NCCc1c[nH]c2ccc(O)cc12` [5-Hydroxytryptamine] gave an LC retention time of 4.3 min. With `COC(=O)c1ccccc1S(=O)(=O)NC(=O)Nc1nc(C)nc(OC)n1` [Metsulfuron-methyl] the LC retention time was 19.4 min. In the case of `CC12CCC(=O)C=C1CCC1C2C(O)CC2(C)C1CCC2(O)C(=O)CO` (stereo unspecified) [Hydrocortisone], the LC retention time is reported as 15.9 min. Compound `COC(=O)c1cccc(C)c1S(=O)(=O)NC(=O)Nc1nc(OCC(F)(F)F)nc(N(C)C)n1` [Triflusulfuron-methyl] has an LC retention time of 39 min. Work on `CC(Cc1ccc(C(C)(C)C)cc1)CN1CCCCC1` (stereo unspecified) [Fenpropidine] yielded an LC retention time of 26.2 min. For `COc1ccc(C(CN(C)C)C2(O)CCCCC2)cc1` (stereo unspecified) [Venlafaxine], the LC retention time was 9.84 min. `CC(C)(C)C(O)(CCc1ccc(Cl)cc1)Cn1cncn1` (stereo unspecified) [Tebuconazole] showed an LC retention time of 39.5 min. With `CCOP(=S)(OCC)Oc1nc(Cl)c(Cl)cc1Cl` [Chlorpyrifos] the LC retention time was 45.5 min. Compound `COc1nc(NC(=O)NS(=O)(=O)c2ccccc2C(F)(F)F)nc(C(F)(F)F)n1` [Tritosulfuron] has an LC retention time of 35.9 min. With `CCc1cccc(CC)c1N(COC)C(=O)CCl` [Alachlor] the LC retention time was 39.4 min. `CSC1=NC(C)(c2ccccc2)C(=O)N1Nc1ccccc1` (stereo unspecified) [Fenamidone] gave an LC retention time of 35.8 min. Compound `CCC(C)C(=O)OC1CC(O)C=C2C=CC(C)C(CCC(O)CC(O)CC(=O)O)C21` (stereo unspecified) [Pravastatin] has an LC retention time of 20.5 min. With `CC1=NNC(=O)N(N=Cc2cccnc2)C1` [Pymetrozine] the LC retention time was 26.7 min. Compound `CCOCN(C(=O)CCl)c1c(C)cccc1CC` [Acetochlor] has an LC retention time of 40.6 min. Work on `COCc1cnc(C2=NC(C)(C(C)C)C(=O)N2)c(C(=O)O)c1` (stereo unspecified) [Imazamox] yielded an LC retention time of 9.34 min. `CCCOC(=O)NCCCN(C)C` [Propamocarb] gave an LC retention time of 5.59 min. For `Fc1ccc(C2CCNCC2COc2ccc3c(c2)OCO3)cc1` (stereo unspecified) [Paroxetine], the LC retention time was 18.3 min. For `CSc1nc(NC2CC2)nc(NC(C)(C)C)n1` [Irgarol], the LC retention time was 29.9 min. Work on `CN1C(=O)CCC1c1ccc[n+](C2OC(C(=O)[O-])C(O)C(O)C2O)c1` (stereo unspecified) [Cotinine glucuronide] yielded an LC retention time of 1.4 min. With `CN1CCCC1c1ccc[n+](C2OC(C(=O)[O-])C(O)C(O)C2O)c1` (stereo unspecified) [Nicotine Glucuronide] the LC retention time was 1.3 min. In the case of `COCC(C)N(C(=O)CCl)c1c(C)csc1C` (stereo unspecified) [Dimethenamid], the LC retention time is reported as 32.5 min. With `CCNc1nc(NC(C)(C)C)[nH]c(=O)n1` [Tertbutylazine-2-hydroxy] the LC retention time was 8.38 min. In the case of `CC(=O)C1CCC2C3CCC4=CC(=O)CCC4(C)C3CCC12C` (stereo unspecified) [Progesterone], the LC retention time is reported as 42.1 min. `Cn1cc(C(=O)Nc2ccc(F)cc2-c2ccc(Cl)c(Cl)c2)c(C(F)F)n1` [Bixafen] gave an LC retention time of 42.2 min. Compound `CC(=O)OCC[N+](C)(C)C` [Acetylcholine] has an LC retention time of 1.39 min. `CCNC(=O)C(C)OC(=O)Nc1ccccc1` (stereo unspecified) [Carbetamide] gave an LC retention time of 13.5 min. `CNC(=N[N+](=O)[O-])NCc1cnc(Cl)s1` [Clothianidin] gave an LC retention time of 7.99 min. For `CNCC(O)c1ccc(O)c(O)c1` (stereo unspecified) [Epinephrine], the LC retention time was 4.39 min.
